Patent US8633245B2, “PAI-1 inhibitor” (Institute of Medicinal Molecular Design, Inc., priority 2008, dated 2014)

Biological target: T1, recombinant human PAI-1 (Homo sapiens, UniProt P05121)
T1 construct: purchased Molecular Innovations, Inc
Assay: Test Example 2: human PAI-1 inhibitory activity (tPA fluorogenic substrate, pH 7.4 HEPES buffer)
Type: biochemical
Conditions: human PAI-1
Protocol: 0.1 M HEPES, 0.1 M NaCl. 1 mM EDTA. 0.1% Polyethylene glycol 8,000 (Hampton Research Corporation),
2 mM Dimethyldecylphoshine oxide [Apo-10] (Fluka Corporation)

T1 sequence (P05121 24-402): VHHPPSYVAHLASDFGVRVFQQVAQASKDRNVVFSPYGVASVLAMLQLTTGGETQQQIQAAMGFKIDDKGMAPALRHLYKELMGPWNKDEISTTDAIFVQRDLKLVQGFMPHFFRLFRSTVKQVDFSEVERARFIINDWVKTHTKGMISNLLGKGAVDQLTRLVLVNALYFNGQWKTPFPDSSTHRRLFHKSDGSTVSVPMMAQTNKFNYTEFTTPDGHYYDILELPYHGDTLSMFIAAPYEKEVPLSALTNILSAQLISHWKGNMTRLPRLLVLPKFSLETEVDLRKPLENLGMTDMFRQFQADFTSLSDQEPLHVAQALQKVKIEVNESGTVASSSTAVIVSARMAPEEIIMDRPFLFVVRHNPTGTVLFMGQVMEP

Compound | Inhibition Rate of PAI-1 Activity (%) (compound concentration 0.1 μM) | Inhibition Rate of PAI-1 Activity (%) (compound concentration 0.3 μM) | Inhibition Rate of PAI-1 Activity (%) (compound concentration 1 μM) | Inhibition Rate of PAI-1 Activity (%) (compound concentration 3 μM)
CC(C)(C)c1ccc(Oc2cc(-c3ccccc3OC(F)(F)F)ccc2CCC(=O)O)cc1 [Compound 467] | 2% | 6% | 73% | >99%
CCCCOc1ccc(-c2ccc(OCC(=O)O)c(Oc3ccc(C(C)(C)C)cc3)c2)cc1 [Compound 468] | 1% | 5% | 86% | 97%
CC(C)(C)c1ccc(Oc2cc(-c3ccc4ccccc4c3)ccc2/C=C/C(=O)O)cc1 [Compound 469] | 4% | 22% | 96% | >99%
CC(C)(C)c1ccc(Oc2cc(-c3ccc4ccccc4c3)ccc2CCC(=O)O)cc1 [Compound 470] | 3% | 16% | 87% | >99%
CC(C)(C)c1ccc(Oc2cc(-c3ccc(C#N)cc3)ccc2OCC(=O)O)cc1 [Compound 471] | 5% | 7% | 11% | 49%
CCCCOc1cccc(Oc2cc(-c3ccc(OC(F)(F)F)cc3)ccc2CCC(=O)O)c1 [Compound 472] | 15% | 14% | 71% | >99%
CC(C)(C)Oc1ccc(Oc2cc(-c3ccc(OC(F)(F)F)cc3)ccc2CCC(=O)O)cc1 [Compound 473] | 15% | 9% | 26% | >99%
O=C(O)CCc1ccc(-c2ccc(OC(F)(F)F)cc2)cc1Oc1ccc(C(F)(F)F)cc1 [Compound 474] | 2% | 11% | 43% | >99%
CCC(C)(C)c1ccc(Oc2cc(-c3ccc(OC(F)(F)F)cc3)ccc2CCC(=O)O)cc1 [Compound 475] | 4% | 27% | 94% | >99%
O=C(O)CCc1ccc(-c2ccc(OC(F)(F)F)cc2)cc1Oc1ccc2ccccc2c1 [Compound 476] | 0% | 3% | 65% | >99%
O=C(O)/C=C/c1ccc(-c2ccc(OC(F)(F)F)cc2)cc1Oc1ccc(OC(F)(F)F)cc1 [Compound 477] | 7% | 21% | 60% | >99%
CC(C)(C)c1ccc(-c2ccc(/C=C/C(=O)O)c(Oc3ccc(OC(F)(F)F)cc3)c2)cc1 [Compound 478] | 11% | 33% | 90% | >99%
O=C(O)CCc1ccc(-c2ccc(OC(F)(F)F)cc2)cc1Oc1ccc(OC(F)(F)F)cc1 [Compound 479] | 17% | 14% | 70% | >99%
CC(C)(C)c1ccc(-c2ccc(CCC(=O)O)c(Oc3ccc(OC(F)(F)F)cc3)c2)cc1 [Compound 480] | 17% | 22% | 80% | >99%
CCCCc1ccc(Oc2cc(-c3ccc(OC(F)(F)F)cc3)ccc2OCC(=O)O)cc1 [Compound 481] | 19% | 16% | 70% | >99%
CC(C)(C)c1ccc(Oc2cc(-c3cc(Cl)ccc3Cl)ccc2/C=C/C(=O)O)cc1 [Compound 483] | 0% | 8% | 76% | >99%
CC(C)(C)c1ccc(Oc2cc(-c3cc(Cl)ccc3Cl)ccc2CCC(=O)O)cc1 [Compound 484] | 0% | 7% | 73% | >99%
CC(C)(C)c1ccc(Oc2cc(-c3cccc([N+](=O)[O-])c3)ccc2OCC(=O)O)cc1 [Compound 485] | 0% | 6% | 11% | 69%
O=C(O)/C=C/c1ccc(-c2ccc(OC(F)(F)F)cc2)cc1OCCCOCc1ccccc1 [Compound 487] | 0% | 3% | 26% | 98%
O=C(O)CCc1ccc(-c2ccc(OC(F)(F)F)cc2)cc1OCCCOCc1ccccc1 [Compound 488] | 0% | 10% | 36% | 91%
O=C(O)/C=C/c1ccc(-c2ccc(OC(F)(F)F)cc2)cc1OCCCSc1ccccc1 [Compound 489] | 12% | 14% | 69% | >99%
CC(C)c1ccccc1Oc1cc(-c2ccc(OC(F)(F)F)cc2)ccc1/C=C/C(=O)O [Compound 490] | 6% | 13% | 91% | >99%
CC(C)c1ccccc1Oc1cc(-c2ccc(OC(F)(F)F)cc2)ccc1CCC(=O)O [Compound 491] | 6% | 10% | 66% | >99%
